Blank lines part the entries; values can stand above or below the molecule they belong to.
Key:
[1] = molecular target: T1, OGOR (2-oxoglutarate:ferredoxin oxidoreductase, Forαβγδε) (Aquifex aeolicus, UniProt O67229+O67230+O67231); assay: spectrophotometric methyl viologen reduction at […] nm, enriched fraction; in-gel activity; type: biochemical; conditions: 10 mM 2-oxoglutarate, 0.1 mM CoA, 0.2 mM TPP, 1 mM MgCl2, 5 mM methyl viologen, pH 8, 80 °C, anaerobic; decarboxylation direction
T1 construct: gene forA2; native, enriched from soluble fraction (DEAE, then Bio-Gel HTP); dimer of pentamers (αβγδε)2, about 250-300 kDa; Aq_1163 may co-migrate; with 2-oxoglutarate:ferredoxin oxidoreductase subunit epsilon (ferredoxin-like, Fd2); 2-oxoglutarate:ferredoxin oxidoreductase subunit delta

[2] = molecular target: pyruvate:ferredoxin oxidoreductase (PFOR) of Aquifex aeolicus, five-subunit complex PORαβγδε (Aquifex aeolicus (endogenous in A. aeolicus VF5 cells)) (UniProt O67254); assay: native gel or EMSA; 3-12% Blue Native gel of elution fraction 2 of the Fd7Strep pull-down; in-gel PFOR and OGOR activity at roughly 300 kDa; proteins of the activity bands identified by mass spectrometry; for the self-association: dimer of the αβγδε protomer, from the estimated mass
[3] = molecular target: 2-oxoglutarate:ferredoxin oxidoreductase (OGOR) of Aquifex aeolicus, five-subunit complex FORαβγδε (Aquifex aeolicus (endogenous in A. aeolicus VF5 cells)) (UniProt O67229); assay: as above
[4] = molecular target: T2, Fd7Strep (recombinant ferredoxin 7) (Aquifex aeolicus, UniProt Z9T2O6C3G9); assay: EPR spectroscopy and UV-visible absorption; type: binding; conditions: purified protein, dithionite-reduced, […] K
T2 construct: full length with C-terminal Strep-tag II, expressed in E. coli MG1655 ΔiscR; native protein 80 residues, apoprotein 9130 Da; native N-terminus […]
T2 sequence (Z9T2O6C3G9 1-80): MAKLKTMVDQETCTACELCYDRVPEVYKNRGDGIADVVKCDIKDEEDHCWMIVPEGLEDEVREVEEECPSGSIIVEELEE

[5] = molecular target: T3, PFOR (pyruvate:ferredoxin oxidoreductase, Porαβγδε) (Aquifex aeolicus, UniProt O67254+O67255+O67256); assay: spectrophotometric methyl viologen reduction at […] nm, enriched fraction; in-gel activity; type: biochemical; conditions: 10 mM pyruvate, 0.1 mM CoA, 0.2 mM TPP, 1 mM MgCl2, 5 mM methyl viologen, pH 8, 80 °C, anaerobic; decarboxylation direction
T3 construct: gene forA1; native, enriched from soluble fraction (DEAE step); dimer of pentamers (αβγδε)2, about 250-300 kDa; with pyruvate:ferredoxin oxidoreductase subunit epsilon (ferredoxin-like, Fd3); pyruvate:ferredoxin oxidoreductase subunit delta
T3 sequence (O67255 entry or part of it): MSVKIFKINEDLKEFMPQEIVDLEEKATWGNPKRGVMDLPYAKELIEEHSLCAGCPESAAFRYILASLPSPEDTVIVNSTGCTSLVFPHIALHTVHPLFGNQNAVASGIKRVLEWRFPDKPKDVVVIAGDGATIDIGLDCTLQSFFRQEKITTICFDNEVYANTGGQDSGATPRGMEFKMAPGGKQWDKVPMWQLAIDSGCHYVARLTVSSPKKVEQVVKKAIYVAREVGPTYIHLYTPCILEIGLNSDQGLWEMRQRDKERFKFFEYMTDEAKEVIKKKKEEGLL
T3 sequence (O67254 entry or part of it): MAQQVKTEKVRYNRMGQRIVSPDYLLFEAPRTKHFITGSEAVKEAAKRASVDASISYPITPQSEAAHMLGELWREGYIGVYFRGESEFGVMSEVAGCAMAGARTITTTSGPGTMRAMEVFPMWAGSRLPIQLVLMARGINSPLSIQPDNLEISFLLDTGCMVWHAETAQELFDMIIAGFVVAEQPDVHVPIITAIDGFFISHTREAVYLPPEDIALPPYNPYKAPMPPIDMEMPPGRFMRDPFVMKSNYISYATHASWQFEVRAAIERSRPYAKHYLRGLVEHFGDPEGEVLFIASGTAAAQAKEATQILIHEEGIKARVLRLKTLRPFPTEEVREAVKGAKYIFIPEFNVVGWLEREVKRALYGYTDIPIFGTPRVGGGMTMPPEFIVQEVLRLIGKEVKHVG
T3 sequence (O67256 entry or part of it): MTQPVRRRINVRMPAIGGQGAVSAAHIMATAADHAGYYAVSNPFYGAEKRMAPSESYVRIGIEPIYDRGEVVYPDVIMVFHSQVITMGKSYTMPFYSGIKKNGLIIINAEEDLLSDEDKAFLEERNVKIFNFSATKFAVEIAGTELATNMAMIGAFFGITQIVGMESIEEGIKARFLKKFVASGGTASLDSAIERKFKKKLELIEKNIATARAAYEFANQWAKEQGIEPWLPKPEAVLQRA
T3 sequence (O67251 whole entry, further chain): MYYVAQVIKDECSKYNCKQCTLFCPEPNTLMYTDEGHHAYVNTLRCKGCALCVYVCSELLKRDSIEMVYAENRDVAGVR
T3 sequence (O67252 entry or part of it, further chain): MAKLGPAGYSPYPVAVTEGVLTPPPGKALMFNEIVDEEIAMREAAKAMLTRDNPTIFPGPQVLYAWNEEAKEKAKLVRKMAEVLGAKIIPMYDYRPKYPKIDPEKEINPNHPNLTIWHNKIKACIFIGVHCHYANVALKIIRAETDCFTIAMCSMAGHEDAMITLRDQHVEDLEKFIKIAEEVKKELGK

T1 sequence (O67229 1-389): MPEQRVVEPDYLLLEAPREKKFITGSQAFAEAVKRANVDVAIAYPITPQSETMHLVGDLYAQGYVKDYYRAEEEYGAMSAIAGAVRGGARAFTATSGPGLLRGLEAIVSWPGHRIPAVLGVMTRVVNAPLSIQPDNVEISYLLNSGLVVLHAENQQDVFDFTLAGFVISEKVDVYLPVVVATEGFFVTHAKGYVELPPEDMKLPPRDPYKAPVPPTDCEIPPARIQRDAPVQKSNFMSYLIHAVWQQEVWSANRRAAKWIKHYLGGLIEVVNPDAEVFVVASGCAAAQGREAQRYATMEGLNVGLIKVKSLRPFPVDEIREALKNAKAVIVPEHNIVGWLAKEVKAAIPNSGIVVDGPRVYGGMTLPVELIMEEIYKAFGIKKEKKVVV
T1 sequence (O67230 1-289): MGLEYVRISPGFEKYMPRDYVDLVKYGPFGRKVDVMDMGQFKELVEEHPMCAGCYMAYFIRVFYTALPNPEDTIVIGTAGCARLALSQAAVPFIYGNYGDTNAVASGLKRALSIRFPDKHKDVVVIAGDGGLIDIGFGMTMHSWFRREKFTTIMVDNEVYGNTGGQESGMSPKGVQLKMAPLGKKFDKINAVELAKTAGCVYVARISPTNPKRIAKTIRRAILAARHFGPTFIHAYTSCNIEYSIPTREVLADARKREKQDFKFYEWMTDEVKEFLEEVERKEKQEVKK
T1 sequence (O67231 1-230): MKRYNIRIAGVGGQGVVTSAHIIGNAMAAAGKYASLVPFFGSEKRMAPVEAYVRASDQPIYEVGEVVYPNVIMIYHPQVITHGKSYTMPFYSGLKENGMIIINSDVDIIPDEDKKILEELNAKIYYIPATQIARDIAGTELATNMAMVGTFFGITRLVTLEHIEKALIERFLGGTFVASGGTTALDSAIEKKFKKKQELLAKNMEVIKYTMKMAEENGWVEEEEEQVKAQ
T1 sequence (O67228 29-244 partner limits assumed): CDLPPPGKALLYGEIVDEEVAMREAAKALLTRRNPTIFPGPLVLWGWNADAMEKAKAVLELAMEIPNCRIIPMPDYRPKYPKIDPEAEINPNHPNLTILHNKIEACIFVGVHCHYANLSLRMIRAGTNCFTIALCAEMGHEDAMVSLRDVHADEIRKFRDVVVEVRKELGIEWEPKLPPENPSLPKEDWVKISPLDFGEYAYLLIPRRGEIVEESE
T1 sequence (O67232 whole entry partner): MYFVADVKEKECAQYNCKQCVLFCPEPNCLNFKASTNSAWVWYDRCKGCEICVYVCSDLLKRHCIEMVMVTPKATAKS

Molecule: O=C(O)CCC(=O)C(=O)O [2-oxoglutarate]
spectrophotometric methyl viologen reduction at 604 nm, enriched fraction; in-ge [1]: pyruvate for PFOR and 2-oxoglutarate for OGOR

stoichiometry N [2]: 2
Molecule: pyruvate:ferredoxin oxidoreductase (PFOR) of Aquifex aeolicus, five-subunit complex PORαβγδε (from UniProt O67254 1-404; O67255 1-286; O67256 1-241; O67251 1-79; O67252 1-189)

stoichiometry N [3]: 2
Molecule: 2-oxoglutarate:ferredoxin oxidoreductase (OGOR) of Aquifex aeolicus, five-subunit complex FORαβγδε (from UniProt O67229 1-389; O67230 1-289; O67231 1-230; O67232 1-78; O67228 1-244)

Molecule: [S]12[Fe]3[S]4[Fe]1[S]1[Fe]2[S]3[Fe]41 [[4Fe-4S] cluster]
EPR spectroscopy and UV-visible absorption [4]: confirming the presence of one [4Fe-4S] center per Fd molecule

Molecule: CC(=O)C(=O)O [pyruvate]
spectrophotometric methyl viologen reduction at 604 nm, enriched fraction; in-ge [5]: pyruvate for PFOR and 2-oxoglutarate for OGOR

Reference: publication PMC10052474, “Carbon Fixation in the Chemolithoautotrophic Bacterium Aquifex aeolicus Involves Two Low-Potential Ferredoxins as Partners of the PFOR and OGOR Enzymes” (Life, 2023)
